Measured values from ChEMBL document CHEMBL1138992, “New benzimidazoles as thrombopoietin receptor agonists” (Bioorg Med Chem Lett, 2006).

Target: T1, Thrombopoietin receptor (Homo sapiens) (UniProt P40238)
T1 sequence (whole entry): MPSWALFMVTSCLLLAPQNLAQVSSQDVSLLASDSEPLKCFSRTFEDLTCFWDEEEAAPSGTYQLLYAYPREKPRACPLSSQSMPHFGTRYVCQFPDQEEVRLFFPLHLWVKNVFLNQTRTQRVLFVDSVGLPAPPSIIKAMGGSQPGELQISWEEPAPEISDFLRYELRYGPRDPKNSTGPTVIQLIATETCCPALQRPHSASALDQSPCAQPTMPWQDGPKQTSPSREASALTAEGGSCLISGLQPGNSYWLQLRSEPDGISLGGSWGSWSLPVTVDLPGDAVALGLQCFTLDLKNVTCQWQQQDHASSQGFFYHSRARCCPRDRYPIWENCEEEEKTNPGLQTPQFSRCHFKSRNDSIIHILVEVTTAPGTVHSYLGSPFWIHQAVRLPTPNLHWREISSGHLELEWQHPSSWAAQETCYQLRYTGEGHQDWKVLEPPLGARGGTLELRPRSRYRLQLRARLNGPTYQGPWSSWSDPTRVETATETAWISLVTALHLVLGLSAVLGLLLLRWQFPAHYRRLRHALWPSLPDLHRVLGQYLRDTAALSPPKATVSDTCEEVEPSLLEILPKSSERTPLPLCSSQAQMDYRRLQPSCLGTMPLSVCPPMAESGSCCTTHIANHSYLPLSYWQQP
Test: (§1) Agonist activity as induced proliferation in Ba/F3-hTpoR murine lymphocyte expressing human TPOR; call rule not given here
Format: functional

| SMILES | Efficacy [%] |
| --- | --- |
| O=C1NC(=S)S/C1=C\c1ccc2[nH]c(-c3cccc(-c4ccc(Cl)c(Cl)c4)n3)nc2c1 | 19 |
| C/C(=C\c1ccc2[nH]c(-c3cccc(-c4ccc(C(C)(C)C)cc4)n3)nc2c1)C(=O)O | 109 |
| Cc1ccc(-c2cccc(-c3nc4cc(/C=C5\SC(=S)NC5=O)ccc4[nH]3)n2)cc1C | 73 |
| CC(C)(C)c1ccc(-c2cccc(-c3nc4cc(/C=C5\SC(=S)NC5=O)ccc4[nH]3)c2)cc1 | 137 |
| CC(C)(C)c1ccc(-c2cccc(-c3nc4cc(/C=C5\SC(=S)NC5=O)ccc4[nH]3)c2O)cc1 | 134 |
| CC(C)(C)c1ccc(-c2cccc(-c3nc4cc(CC(C(=O)O)C(=O)O)ccc4[nH]3)n2)cc1 | 13 |
| CC(C)(C)c1ccc(-c2cccc(-c3nc4cc(/C=C5\SC(=S)NC5=O)ccc4[nH]3)n2)cc1 | 90 |

Next, values leading:

| Efficacy [%] | SMILES |
| --- | --- |
| 142 | CC(C)(C)c1ccc(-c2ccc(-c3nc4cc(/C=C5\SC(=S)NC5=O)ccc4[nH]3)o2)cc1 |
| 117 | Cc1ccc(-c2ccc(-c3nc4cc(/C=C5\SC(=S)NC5=O)ccc4[nH]3)s2)cc1C |
| 123 | Cc1ccc(-c2csc(-c3nc4cc(/C=C5\SC(=S)NC5=O)ccc4[nH]3)c2)cc1C |

Target: T2, Thrombopoietin receptor (Homo sapiens, UniProt P40238)
T2 sequence (P40238 whole entry): T1 sequence (whole entry)
Test: as §1
Format: functional

| EC50 | SMILES |
| --- | --- |
| Not Active | Cc1ccc(-c2cccc(-c3nc4c(C=C(C(=O)O)C(=O)O)cccc4[nH]3)n2)cc1C |
| Not Active | C/C(=C\c1cccc2[nH]c(-c3cccc(-c4ccc(C)c(C)c4)n3)nc12)C(=O)O |
| Not Active | Cc1ccc(-c2cccc(-c3nc4c(/C=C5\SC(=S)NC5=O)cccc4[nH]3)n2)cc1C |
| Not Active | CCOC(=O)/C(C)=C/c1ccc2[nH]c(-c3cccc(-c4ccc(C(C)(C)C)cc4)n3)nc2c1 |
